Data reported in patent US20130115322A1, “Therapeutic Compositions and Methods for Treating Cell Dysplasia Using Extracts From Raspberry and Strawberry” (priority 2003, published 2013).

What was measured:
[1] = system: normal, premalignant and malignant oral epithelial cell lines; assay: Growth and cytotoxicity in oral epithelial cell lines; format: cell-based, human
Experimental: In particular, using a panel of normal, premalignant and malignant oral epithelial cell lines, the cellular (growth inhibiting and cytotoxic) effects of phytochemicals found in black raspberry fractions was determined (i.e., F001, F003, DM, and ME/Et, see FIGS. 2A and 2B).

VEGF = settings: reported; cited from earlier work
iNOS [2] = biological target: T1, iNOS (Homo sapiens, UniProt P35228); settings: cytokine-induced colorectal adenocarcinoma DLD cells; cited from earlier work
T1 construct: its specificity for iNOS was established in cytokine-induced colorectal adenocarcinoma DLD cells; endogenous in cells; host or cells: cytokine-induced colorectal adenocarcinoma DLD cells

[3] = system: azoxymethane-induced aberrant crypt foci; settings: rat colon, Rao et al.; cited from earlier work
NMBA-induced tumors = settings: Chen et al. 2004; cited from earlier work
COX-2 = COX-2 expression in RE-149 DHD cells; format: cell-based, rat; settings: RE-149 DHD cell lines
Text: (§1) Several BRB extracts and anthocyanins have been administered in JB6 CI 41 mouse epidermal cell lines and RE-149 DHD rat epithelium cancer cell lines, and such model systems are predictive of in vivo biological activity. As further discussed below, the BRB methanol fraction inhibits benzo(a)pyrene-7,8-diol-9,10-epoxide (B(a)PDE)-induced transactivation of transcription factor AP-1 and nuclear factor κB (NFκB, NFKB) activity in JB6 CI 41 cell lines; BRB ethanol extracts inhibited cell proliferation in RE-149 DHD cell lines; and the anthocyanins, cyanidin-3-O-glucoside and cyanidin-3-O-rutinoside derived from BRB ethanol extracts, suppressed the expression of COX-2 and iNOS in RE-149 DHD cell lines. A further embodiment is that even the unpurified components of the BRB ethanol extracts are believed to be safe for human consumption, being derived from a consumable foodstuff using consumable extraction solvents.

iNOS [4] = assay: iNOS expression in RE-149 DHD cells; format: cell-based, rat; settings: RE-149 DHD cell lines
Text: as §1

T1 sequence (P35228 whole entry): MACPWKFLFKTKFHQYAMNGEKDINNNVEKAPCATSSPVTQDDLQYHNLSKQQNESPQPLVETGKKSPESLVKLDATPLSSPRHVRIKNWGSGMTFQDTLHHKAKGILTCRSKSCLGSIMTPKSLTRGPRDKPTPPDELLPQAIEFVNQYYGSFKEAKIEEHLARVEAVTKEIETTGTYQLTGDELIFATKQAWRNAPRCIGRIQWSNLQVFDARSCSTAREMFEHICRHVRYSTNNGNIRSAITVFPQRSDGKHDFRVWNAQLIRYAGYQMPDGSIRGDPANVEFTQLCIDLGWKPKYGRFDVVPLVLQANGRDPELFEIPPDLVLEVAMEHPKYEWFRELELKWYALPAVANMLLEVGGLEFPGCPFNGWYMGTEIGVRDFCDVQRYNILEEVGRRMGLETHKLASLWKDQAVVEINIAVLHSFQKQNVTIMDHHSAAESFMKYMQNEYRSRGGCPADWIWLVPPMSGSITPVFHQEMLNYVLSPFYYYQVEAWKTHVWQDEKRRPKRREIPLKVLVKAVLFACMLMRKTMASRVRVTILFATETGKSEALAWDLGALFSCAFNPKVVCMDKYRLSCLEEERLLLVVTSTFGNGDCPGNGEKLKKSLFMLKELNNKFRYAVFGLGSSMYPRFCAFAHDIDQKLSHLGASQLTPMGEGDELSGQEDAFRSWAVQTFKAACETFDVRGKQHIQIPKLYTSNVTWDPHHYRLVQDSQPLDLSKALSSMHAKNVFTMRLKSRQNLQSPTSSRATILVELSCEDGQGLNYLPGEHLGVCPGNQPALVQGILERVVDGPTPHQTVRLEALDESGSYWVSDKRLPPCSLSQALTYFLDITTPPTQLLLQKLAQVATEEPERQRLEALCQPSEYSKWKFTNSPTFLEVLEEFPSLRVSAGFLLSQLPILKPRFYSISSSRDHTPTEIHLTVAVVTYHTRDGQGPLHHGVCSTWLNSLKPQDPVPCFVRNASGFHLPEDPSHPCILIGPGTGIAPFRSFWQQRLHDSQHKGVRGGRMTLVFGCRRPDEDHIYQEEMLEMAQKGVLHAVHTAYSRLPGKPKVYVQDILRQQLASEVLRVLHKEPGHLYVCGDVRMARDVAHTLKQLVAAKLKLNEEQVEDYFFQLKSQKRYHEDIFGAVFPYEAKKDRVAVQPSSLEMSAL

Row | SMILES | angiogenesis by inhibiting VEGF expression (VEGF) | expression of COX-2 (COX-2) | expression of iNOS (iNOS [4]) | further results
1 | O=c1oc2c(O)c(O)cc3c(=O)oc4c(O)c(O)cc1c4c23 [Ellagic acid] |  |  |  | growth of oral cell lines [1]: potent, non-selective, inhibitor
2 | Cc1nc(C2CCCCC2)c(-c2ccc(S(N)(=O)=O)c(F)c2)o1 [JTE-522] | effectively block angiogenesis |  |  | 
3 | CS(=O)(=O)Nc1ccc([N+](=O)[O-])cc1OC1CCCCC1 [NS-398] | effectively block angiogenesis |  |  | 
4 | N=C(N)SCCc1ccc(CCSC(=N)N)cc1 [PBIT, S,S-1,4-phenylene-bis(1,2-ethanediyl)bis-isothiourea] |  |  |  | selectivity for iNOS over endothelial and neuronal NOS (iNOS [2]): selectively inhibit iNOS; aberrant crypt foci formation, crypt multiplicity, and iNOS activity [3]: suppressed; NMBA-induced tumors in the rat esophagus (NMBA-induced tumors): inhibit
5 | OC[C@H]1O[C@@H](Oc2cc3c(O)cc(O)cc3[o+]c2-c2ccc(O)c(O)c2)[C@H](O)[C@@H](O)[C@@H]1O [cyanidin-3-O-glucoside] |  | suppressed | suppressed | 
6 | C[C@@H]1O[C@@H](OC[C@H]2O[C@@H](Oc3cc4c(O)cc(O)cc4[o+]c3-c3ccc(O)c(O)c3)[C@H](O)[C@@H](O)[C@@H]2O)[C@H](O)[C@H](O)[C@H]1O [cyanidin-3-O-rutinoside] |  | suppressed | suppressed | 
